Source: PMC4475797, “New Activity of a Protein from Canavalia ensiformis” (Scientia Pharmaceutica, 2014)
Where two headings read alike, the source gives them in different places.

How the values were obtained:
Concanavalin A (Con A) = molecular target: T1, Concanavalin A (Con A) (Canavalia ensiformis, UniProt P02866); assay: biochemical; assay type: binding
T1 construct: purchased Sigma
Method: Fluorescence spectra were recorded with a Shimadzu spectrofluorometer (Japan). The emission spectra of the tryptophan residues were recorded in a 1-cm quartz cell (Hellma Analytics, Germany). To avoid the measurement of the Tyr emission, the protein sample was excited at λ=295 nm with a slit width of 1.0 nm. Total fluorescence was calculated after the normalization of the fluorescence spectra and correction for dilution. In order to normalize the inner filter and self-absorption effects, the excitation was always carried out less than 0.05 OD. The spectra were recorded in a wavelength range of 300–500 nm. All studies were done at 25°C with the temperature of the samples measured in the cuvette with an accuracy of ± 0.2°C.
The protein-ligand interactions were investigated by monitoring changes in the intrinsic protein fluorescence emission (θexc=295 nm). We applied ideal fluorescence titration and incubation methods for their intrinsic sensitivity and simplicity. For this purpose, Con A (1.8 µM) was incubated at 4°C overnight with increasing concentrations of MnTMPyP, ZnTPPS, and FeTMPyP. […] Applied porphyrin concentrations were consistent with minimizing artifacts due to aggregation phenomena. Con A-adenine interactions were studied by overnight incubation (at 4°C). The obtained experimental data were processed by non-linear and linear regression analysis, computed by a GraphPad Prism program and presented in figures comprising three independent sets of experiments.

[1] = tested on: G361 (a human melanoma cell line); set-up: method as in PMID 18645224; details: G361 cells; cited from earlier work
[2] = tested on: cancer cell lines (Du-145, HD-LAPC-4, Hep-G2, HI-LAPC-4, LnCAP, PANC-1, and PC-3); set-up: method as in PMID 20735206; details: combined with an ascorbic acid; cited from earlier work
[3] = pH 6.8, read-out: Dissociation constants (KD) for the interaction

| Compound | effect on Trp fluorescence emission of Con A (Concanavalin A (Con A)) | Kd (Concanavalin A (Con A); [3]) [nM] | other results |
| --- | --- | --- | --- |
| O=S(=O)([O-])c1ccc(-c2c3nc(c(-c4ccc(S(=O)(=O)[O-])cc4)c4ccc([nH]4)c(-c4ccc(S(=O)(=O)[O-])cc4)c4nc(c(-c5ccc(S(=O)(=O)[O-])cc5)c5ccc2[nH]5)C=C4)C=C3)cc1.[Zn+2].[Zn+2] [ZnTPPS, 5,10,15,20-Tetrakis (4-sulfonatophenyl)-porphyrin-zinc(II)] | increase in the Trp fluorescence |  | red shift of the emission maximum position (Concanavalin A (Con A)): 10 nm; cell death [1]: induces cell death |
| C[n+]1ccc(-c2c3nc(c(-c4cc[n+](C)cc4)c4ccc([n-]4)c(-c4cc[n+](C)cc4)c4nc(c(-c5cc[n+](C)cc5)c5ccc2[n-]5)C=C4)C=C3)cc1.[Fe+3] [FeTMPyP, 5,10,15,20-Tetrakis (N-methyl 4-pyridyl)-porphyrin Fe(III)] |  | 950 ± 130 | Hill slope (h) (Concanavalin A (Con A)): 1.89±0.46; blue shift of the emission maximum (Concanavalin A (Con A)): 5 nm |
| C[n+]1ccc(-c2c3nc(c(-c4cc[n+](C)cc4)c4ccc([n-]4)c(-c4cc[n+](C)cc4)c4nc(c(-c5cc[n+](C)cc5)c5ccc2[n-]5)C=C4)C=C3)cc1.[Cl-].[Cl-].[Cl-].[Cl-].[Cl-].[Mn+3] [MnTMPyP, 5,10,15,20-Tetrakis (N-methyl-4-pyridyl)-porphyrin-Mn(III)pentachloride] | fluorescence quenching | 1890 ± 540 | cytotoxic effect [2]: potent synergistic cytotoxic effect |
| 5,10,15,20-Tetrakis(4-sulfonatophenyl)-porphyrin-Au(III)chloride [AuTPPS] | fluorescence quenching |  |  |
| Nc1ncnc2[nH]cnc12 [adenine] | fluorescence quenching |  | Kd (Concanavalin A (Con A)): 380 ± 80 nM |
